Consider ten compounds from publication PMC8304761, “Development of an Androgen Receptor Inhibitor Targeting the N-Terminal Domain of Androgen Receptor for Treatment of Castration Resistant Prostate Cancer” (Cancers, 2021).

Like-named read-outs stand apart in the source and are kept apart here.

What is called IC50 is the concentration that inhibits the measured activity by half.

One data set deals with T1, full-length AR (Homo sapiens, UniProt P10275, T878A).
T1 construct: against full length AR using an AR-eGFP transcription assay in LNCaP cells; endogenous in cells; host or cells: LNCaP (LN-ARR2PB-eGFP reporter line for A1; parental LNCaP for RIME)
T1 sequence (P10275 1-920 T878A): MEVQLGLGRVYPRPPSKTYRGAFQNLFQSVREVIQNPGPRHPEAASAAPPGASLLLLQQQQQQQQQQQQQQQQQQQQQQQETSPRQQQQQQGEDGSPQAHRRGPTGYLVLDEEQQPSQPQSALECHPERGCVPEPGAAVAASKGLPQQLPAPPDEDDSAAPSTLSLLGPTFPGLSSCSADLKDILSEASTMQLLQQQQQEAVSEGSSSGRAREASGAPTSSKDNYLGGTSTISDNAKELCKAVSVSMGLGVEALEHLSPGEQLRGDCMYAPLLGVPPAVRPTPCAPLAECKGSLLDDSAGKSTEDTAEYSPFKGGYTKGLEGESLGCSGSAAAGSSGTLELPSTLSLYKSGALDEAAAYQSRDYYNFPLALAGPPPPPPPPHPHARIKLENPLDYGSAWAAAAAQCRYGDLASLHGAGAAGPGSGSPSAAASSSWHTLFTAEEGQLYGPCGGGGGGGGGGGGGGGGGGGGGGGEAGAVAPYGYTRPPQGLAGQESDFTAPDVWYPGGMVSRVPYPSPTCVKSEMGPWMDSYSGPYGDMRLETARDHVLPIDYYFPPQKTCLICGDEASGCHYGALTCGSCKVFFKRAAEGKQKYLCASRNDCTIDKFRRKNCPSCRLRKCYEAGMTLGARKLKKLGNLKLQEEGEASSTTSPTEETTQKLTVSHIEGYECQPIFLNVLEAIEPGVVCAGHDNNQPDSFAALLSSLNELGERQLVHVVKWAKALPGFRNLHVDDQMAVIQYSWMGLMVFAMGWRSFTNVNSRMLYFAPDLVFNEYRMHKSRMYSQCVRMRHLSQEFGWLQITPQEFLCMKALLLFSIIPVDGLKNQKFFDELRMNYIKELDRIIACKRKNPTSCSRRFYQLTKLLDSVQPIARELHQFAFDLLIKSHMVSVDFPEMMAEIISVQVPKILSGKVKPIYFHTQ
The experiment in a line: AR fluorescent (eGFP) reporter assay in LN-ARR2PB-eGFP LNCaP cells. Type of data set: cell-based. As for the experimental part:
AR fluorescent reporter assay: Stably transfected eGFP-expressing LNCaP human prostate cancer cells (LN-ARR2PB-eGFP) containing an androgen-responsive probasin-derived promoter (ARR2PB) were assayed, as previously described.
Next, we tested the activity of VPC-220010 against full length AR using an AR-eGFP transcription assay in LNCaP cells. […] PSA is an AR-regulated serine protease and is widely used as a biomarker for PCa.
Background: A reporter such as luciferase makes a cellular process visible.

The test system of data set [1] is prostate specific antigen (PSA). Description: Secreted PSA levels in LNCaP cells. Format: cell-based. Particulars: Homo sapiens, LNCaP; Table 1; read-out: PSA IC50. The text has this: Next, we tested the activity of VPC-220010 against full length AR using an AR-eGFP transcription assay in LNCaP cells. […] To further validate VPC-220010 as an AR inhibitor, we evaluated its ability to reduce the production of endogenous prostate specific antigen (PSA) in PCa cell lines. PSA is an AR-regulated serine protease and is widely used as a biomarker for PCa.

A further data set deals with T2, ARV7 (Homo sapiens, UniProt P10275).
T2 sequence (P10275 1-644 isoform P10275-3): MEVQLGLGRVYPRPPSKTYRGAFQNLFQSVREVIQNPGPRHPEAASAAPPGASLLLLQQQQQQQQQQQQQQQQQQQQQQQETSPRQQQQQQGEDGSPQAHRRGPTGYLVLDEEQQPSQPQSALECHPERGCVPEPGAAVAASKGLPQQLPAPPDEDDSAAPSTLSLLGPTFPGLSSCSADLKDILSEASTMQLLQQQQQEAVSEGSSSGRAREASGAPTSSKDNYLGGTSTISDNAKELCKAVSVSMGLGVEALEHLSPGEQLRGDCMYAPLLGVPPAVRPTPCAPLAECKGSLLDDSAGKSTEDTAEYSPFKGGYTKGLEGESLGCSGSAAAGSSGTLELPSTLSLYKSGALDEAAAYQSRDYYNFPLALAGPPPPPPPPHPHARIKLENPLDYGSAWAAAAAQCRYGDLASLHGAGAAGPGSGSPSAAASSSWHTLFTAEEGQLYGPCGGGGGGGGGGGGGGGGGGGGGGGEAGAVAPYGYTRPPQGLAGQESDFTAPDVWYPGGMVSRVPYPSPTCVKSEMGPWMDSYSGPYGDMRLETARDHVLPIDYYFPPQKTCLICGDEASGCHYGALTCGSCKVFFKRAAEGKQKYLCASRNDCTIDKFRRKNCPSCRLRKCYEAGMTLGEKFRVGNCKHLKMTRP

The next data set is described as follows: Microsomal stability. Type of data set: in vitro ADME, human. The text has this:
However, further medicinal chemistry optimization is needed to make this scaffold stable enough to proceed to potential preclinical studies. […] Study of VPC-220057 scaffold could lead to a VPC-220010- and VPC-220057-derivative that combines their best potency and stability. The corresponding efforts are under way.

The test system of another data set is LNCaP cells. The experiment in a line: Proliferation assay (PrestoBlue), LNCaP. Particulars: Homo sapiens, 72 h, R1881, Figure 2C, read-out: IC50, viability of LNCaP cells. Format: cell-based. Here is the method: (§1) Proliferation assay: LNCaP, 22Rv1 and PC3 cells were plated at 3000 cells per well in RPMI1640 containing 5% CSS in a 96-well plate, treated with 0.1 nm R1881 (a synthetic androgen) and test compounds (0–25 μM) for 72 h. Cell proliferation was determined using the PrestoBlue^TM cell proliferation assay following incubation with the compound […] over 72 h. In brief, 30 μL of the PrestoBlue^TM reagent was added to cells in each well of the 96-well plate containing 200 μL of media and incubated for 60 min at 37 °C in 5% CO2. The production of […]. Fluorescence measurement was read on a TECAN F200.
(§2) We then evaluated the effect of VPC-220010 on the proliferation of androgen-dependent LNCaP and ARV7-dependent 22Rv1 cells.

The test system of another data set is 22Rv1 cells. The experiment in a line: Proliferation assay (PrestoBlue), 22Rv1. Format: cell-based. To be noted: Homo sapiens, 72 h, Figure 2D, read-out: IC50, viability of 22Rv1 cells. Here is the method:
as §1, §2

The target of data set [2] is T3, glucocorticoid receptor (GR) (Homo sapiens, UniProt P04150).
T3 sequence (P04150 1-777): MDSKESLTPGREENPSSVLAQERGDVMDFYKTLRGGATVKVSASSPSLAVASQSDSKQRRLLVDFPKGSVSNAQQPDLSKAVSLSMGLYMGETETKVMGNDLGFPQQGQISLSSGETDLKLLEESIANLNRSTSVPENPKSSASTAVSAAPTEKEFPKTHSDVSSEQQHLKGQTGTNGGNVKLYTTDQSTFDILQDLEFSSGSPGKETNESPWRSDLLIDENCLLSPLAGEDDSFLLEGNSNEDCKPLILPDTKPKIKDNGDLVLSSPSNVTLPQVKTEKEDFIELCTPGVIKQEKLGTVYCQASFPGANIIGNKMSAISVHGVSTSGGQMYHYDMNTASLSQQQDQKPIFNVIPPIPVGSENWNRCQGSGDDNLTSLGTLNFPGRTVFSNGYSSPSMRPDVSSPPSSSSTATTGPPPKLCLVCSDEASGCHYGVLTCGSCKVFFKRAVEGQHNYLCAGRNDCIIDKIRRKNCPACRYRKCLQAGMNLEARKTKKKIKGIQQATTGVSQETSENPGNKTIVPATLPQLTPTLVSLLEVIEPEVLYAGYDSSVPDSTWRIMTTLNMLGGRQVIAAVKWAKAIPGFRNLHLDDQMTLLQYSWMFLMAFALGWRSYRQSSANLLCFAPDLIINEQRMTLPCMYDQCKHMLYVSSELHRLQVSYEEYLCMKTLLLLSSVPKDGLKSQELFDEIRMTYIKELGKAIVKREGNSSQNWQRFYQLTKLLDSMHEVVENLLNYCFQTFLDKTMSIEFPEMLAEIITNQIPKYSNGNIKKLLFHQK
The experiment in a line: Luciferase reporter transcription assay in PC3 cells, GR. To be noted: dexamethasone stimulated; 20 uM; Figure 4.

Data set [3] addresses T4, progesterone receptor (PR) (Homo sapiens, UniProt P06401).
T4 sequence (P06401 1-933): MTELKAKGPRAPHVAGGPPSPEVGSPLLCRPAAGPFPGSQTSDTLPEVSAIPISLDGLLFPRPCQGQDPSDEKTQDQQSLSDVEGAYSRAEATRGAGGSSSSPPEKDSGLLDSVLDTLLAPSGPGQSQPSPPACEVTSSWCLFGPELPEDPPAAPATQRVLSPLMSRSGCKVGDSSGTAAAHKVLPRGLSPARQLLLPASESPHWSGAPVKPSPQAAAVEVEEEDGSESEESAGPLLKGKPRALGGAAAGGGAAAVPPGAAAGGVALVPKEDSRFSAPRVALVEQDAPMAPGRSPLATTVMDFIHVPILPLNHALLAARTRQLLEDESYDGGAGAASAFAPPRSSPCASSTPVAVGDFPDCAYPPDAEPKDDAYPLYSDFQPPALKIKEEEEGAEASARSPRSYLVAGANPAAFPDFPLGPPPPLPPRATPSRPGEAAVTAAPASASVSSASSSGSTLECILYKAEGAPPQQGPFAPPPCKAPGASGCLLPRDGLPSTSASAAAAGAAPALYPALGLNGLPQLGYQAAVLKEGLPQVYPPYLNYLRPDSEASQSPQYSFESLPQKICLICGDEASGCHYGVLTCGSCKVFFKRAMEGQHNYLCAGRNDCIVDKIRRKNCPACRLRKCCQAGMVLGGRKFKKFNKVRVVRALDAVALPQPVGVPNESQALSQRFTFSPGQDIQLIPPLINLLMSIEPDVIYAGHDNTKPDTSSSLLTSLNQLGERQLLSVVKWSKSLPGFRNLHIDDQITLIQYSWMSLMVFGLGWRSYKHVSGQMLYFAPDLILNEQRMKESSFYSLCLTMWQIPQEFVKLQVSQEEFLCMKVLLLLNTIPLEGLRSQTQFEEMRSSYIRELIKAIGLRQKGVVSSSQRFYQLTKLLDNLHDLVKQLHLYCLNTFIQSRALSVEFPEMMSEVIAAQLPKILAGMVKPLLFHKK
The experiment in a line: Luciferase reporter transcription assay in PC3 cells, PR. Particulars: progesterone stimulated; 20 uM; Figure 4.

Description for ARV7: The newly synthesized compounds were screened initially for their ability to inhibit ARV7 transcriptional activity using a cell based ARV7 transcriptional assay.

For the compound `O=[N+]([O-])c1ccc2c(OCC(O)CCl)cccc2c1OCC(O)CCl` (stereo not drawn) [VPC-220054], the IC50 at full-length AR (Table 1, read-out: eGFP IC50) was 5 µM; in data set [1], 5 µM; on ARV7, 3 µM.

Take `OC(CCl)COc1c(Br)ccc2c(OCC(O)CCl)c(Br)ccc12` (stereo not drawn) [VPC-220027]: the IC50 on full-length AR (Table 1, read-out: eGFP IC50) turned out to be 3 µM; in data set [1], 4 µM; against ARV7, 4 µM.

For the compound `OC(CCl)COc1ccc2cc(OCC(O)CCl)ccc2c1` (stereo not drawn) [VPC-220075], the IC50 was 0.5 µM at full-length AR (Table 1, read-out: eGFP IC50); 0.5 µM in data set [1]; 12 µM against ARV7. In addition, the half-life in “Microsomal stability” (human, microsomes) was 18 min.

For the compound `OC(CCl)CNc1cccc2c(NCC(O)CCl)cccc12` (stereo not drawn) [VPC-2055], the IC50 is 1 µM on full-length AR (LNCaP cells, read-out: IC50, full length AR, AR-eGFP transcription assay); 11.8 µM in the data set with LNCaP cells; above 50 µM with 22Rv1 cells; 8.8 µM at ARV7. Moreover, the “activity against ARV7 (in words)” value at ARV7 is reported as “active against this truncated variant”.

As for `O[C@H](CCl)COc1cccc2c(OC[C@H](O)CCl)cccc12` [SS-220010], the IC50 on full-length AR (Table 1, read-out: eGFP IC50) amounted to 0.7 µM; in data set [1], 0.6 µM; against ARV7 it was 6 µM. In the data set “Microsomal stability” (human, microsomes), this compound gave a half-life of 12 min. In addition, on ARV7, the “activity against ARV7 (in words)” value is “no difference in potency”.

As to `OC(CCl)COc1ccc(Br)c2c(OCC(O)CCl)ccc(Br)c12` (stereo not drawn) [VPC-220028], the IC50 was 0.4 µM on full-length AR (Table 1, read-out: eGFP IC50); 0.4 µM in data set [1]; 3 µM against ARV7.

`CC#C[C@]1(O)CC[C@H]2[C@@H]3CCC4=CC(=O)CCC4=C3[C@@H](c3ccc(N(C)C)cc3)C[C@@]21C` [mifepristone]: in data set [2], the “GR transcriptional reporter activity” value is recorded as “inhibited”. The “PR transcriptional reporter activity” value in data set [3] was “inhibited”.

In the case of `O=[N+]([O-])c1ccc(OCC(O)CCl)c2c([N+](=O)[O-])ccc(OCC(O)CCl)c12` (stereo not drawn) [VPC-220057], the “fold less potent than VPC-220010” value on full-length AR (Table 1) was 10 fold. Moreover, the IC50 on full-length AR (Table 1, read-out: eGFP IC50) came out at 10 µM; in data set [1], 8 µM; at ARV7, 8 µM. In addition, the half-life in the data set “Microsomal stability” (microsomal stability, human microsomes, read-out: T1/2) turned out to be 462 min.

For the compound `OC(CCl)COc1ccc(Br)c2c(OCC(O)CCl)cccc12` (stereo not drawn) [VPC-220062], the IC50 was determined as 0.5 µM on full-length AR (Table 1, read-out: eGFP IC50); 0.5 µM in data set [1]; 3 µM on ARV7. Further, the half-life in “Microsomal stability” (human, microsomes) was 36 min.

In the case of `O[C@@H](CCl)COc1cccc2c(OC[C@@H](O)CCl)cccc12` [RR-220010], the IC50 on full-length AR (Table 1, read-out: eGFP IC50) came to 0.7 µM; in data set [1], 0.7 µM; against ARV7 it was 5 µM. Besides, in the data set “Microsomal stability” (human, microsomes), the half-life amounted to 11 min. For the same compound, the “activity against ARV7 (in words)” value at ARV7 is reported as “no difference in potency”.
